Data from US20160338971A1, “NANO CO-ENCAPSULATION FOR THE PREVENTION AND TREATMENT OF VARIOUS DISORDERS” (priority 2015, published 2016).

These molecules were tested on Human Pancreatic cancer cells (MPanc) (assay: Anti-cancer efficacy in athymic nude mice (subcutaneous pancreatic tumor implant)). Conditions: 10 ug/implant in Matrigel near the tumor implant, tumors excised after 2 weeks, n=6 per group, Control 291 ± 25.
Type: in vivo
Description: Human Pancreatic cancer cells (MPanc) were implanted subcutaneously in nude mice at 1 million cells per site and after tumor growth to 150-200 mm3, animals were implanted with the various Nano composites near by the tumor implant.
The preceding data represents mean tumor weight±Standard Deviation (SD), n=6 per group, after 2 weeks of pancreatic cancer cell implant at 1 million per animals. Nano composites were implanted in a Matrigel near by the tumor implants

| Molecule | Mean Pancreatic Tumor Weight (mg) ± SD [mg] |
| --- | --- |
| C[S+]([O-])CCCCN=C=S (centres unmarked) [Sulforaphan] | 195.80 ± 21.2 |
| C=CCSSC=CC[S+]([O-])CC=C (mixture of isomers) [Ajoene] | 188.45 ± 15.6 |
| epigallocatechin-3-gallate [EGCG] | 145.11 ± 17.8 |
| O=C1O[C@H]2[C@@H]3OC(=O)c4cc(O)c(O)c(O)c4-c4c(O)c(O)c5oc(=O)c6c(c(O)c(O)c7oc(=O)c4c5c76)-c4c(cc(O)c(O)c4O)C(=O)OC[C@H]3OC(O)[C@@H]2OC(=O)c2cc(O)c(O)c(O)c2-c2c1cc(O)c(O)c2O (mixture of isomers) [Punicalagin] | 146.44 ± 16.4 |
| Oc1ccc(C=Cc2cc(O)cc(O)c2)cc1 [Resveratrol] | 198.44 ± 18.9 |
